Results taken from patent publication US6528049B2, “Bisexual attractants, aggregants and arrestants for adults and larvae of codling moth and other species of lepidoptera” (Trece, Inc., priority 1999, dated 2003).
Values joined by “and” are separate entries in the source; they are usually repeats but may differ in a detail not shown here. Equal entries are not always repeated.

Assays:
Assay type in all cases: in vivo, Cydia pomonella
codling moth [1] = experiment: Field study of individual alcohols, aldehydes and esters; details: individual compounds typically of purity 90-98%
Text: Attractive activity of these compounds for male and female codling moth was compared to purified ethyl (2E,4Z)-2,4-decadienoate.
When the cumulative evaluation of all studied compounds and/or blends containing aldehyde, alcohol, ester and terpene compounds was made, the following results clearly confirmed the findings seen in Table 3.

codling moth [2] = experiment: Inherent attractancy field test of HPV blends in baited sticky traps in walnut orchard
Method: The blends listed in Table 2 were then field tested in walnut orchards for their attractancy to male and female codling moths, and also for enhancement with synthetic codling moth pheromone and other additives identified above. Their total capture (both males and females), and their individual male and female capture were determined and results obtained, were compared to insect capture obtained with purified individual ester, compound #25 namely ethyl (2E,4Z)-2,4-decadienoate, and to the codling moth male sex pheromone compound #26 in Table 3.
Individual blends containing representative aldehyde, alcohol, ester, monoterpene or sesquiterpene blends were provided in the traps in 10 mg/white septa.
Individual host-plant volatile (HPV) blends identified by the #1-23 in Table 3 were tested for codling moth attractancy in a walnut orchard, and the results were compared to the isolated purified ethyl (2E,4Z)-2,4-decadienoate (#25), to pheromone (#26) and to solvent controls (#24).
Twenty-five HPV blends and eight individual compounds were field tested. One synthetic blend, “ester blend #10,” elicited excellent codling moth attraction. In field tests, the other tested blends (see Table 3) and compounds captured no moths over a three month period, except for an “apple-skin surface extract” (Golden Delicious, ether solvent) (Σ=3 codling moth captured, 1♂: 2♀♀) and the individual compound, (E,E)-α-farnesene (Σ=1♂ codling moth captured). The field tests are presented in Table 3 and show attraction specificity for HPV ester blend #10.
(§1) Sticky traps (ICP and IIB traps, Trécé, Inc. Salinas, Calif.) were baited with either extracts, blends of HPVs, or individual HPVs (>95% purity) that evaporated from impregnated rubber septa. HPV blends, or individual HPV compounds, were diluted in hexane and pipetted onto rubber septa at approximate doses of 10 mg/septum. A single treatment septum was placed in each sticky wing-trap, and hung approximately six meters high in the outer walnut canopy. Trap liners and treatment HPV septa were replaced every 10-14 days and pheromone septa every month and tests were conducted throughout two summers.
(§2) A replicated series of different HPV treatment traps, control “blank” (unbaited) trap, and a commercial pheromone-baited trap (Trécé, Inc.) were distributed 5 trees apart throughout two distant Hartley walnut orchards and validated in 12 walnut orchards. The orchards were distinct, with one using three summer insecticide sprays and the other had no spraying. Thus, these test orchards had low vs. moderate relative populations of codling moths. Significant effects on the gender of codling moths captured were judged by paired tests, either T-test or a nonparametric test.

codling moth [3] = experiment: Trap capture with proportional mixes of ethyl 2,4-decadienoate isomers; details: 1 mg dose/gray septum
Method: Additionally, studies were performed to determine the attraction of codling moth to proportional mixes of (2E,4Z) and (2E,4E) isomers of ethyl 2,4-decadienoate and highly purified samples of each. Traps were baited with 1 mg dose/gray septum.

codling moth [4] = experiment: Trap capture with purified (2E,4E) and (2E,4Z) 2,4-decadienoic acid esters; details: 1 mg dose/gray septum; four orchards; means of 21 trap checks
Method: In this study, test compounds were highly purified synthetic samples. The purities of the compounds are expressed as percentages. Individual traps were baited with 1 mg dose/gray septum; five replicate blocks in four orchards; means of 21 total trap checks.

codling moth [5] = experiment: Rapid-kill liquid traps baited with ester blend #10 or pheromone
Method: Experimental challenge to this question was to use a novel, funnel-liquid-jar-trap (“rapid-kill liquid traps”) to rapidly kill (drown) attracted moths. […] Again, it was the females who were predominantly captured (sex ratio: 1♂:3.0♀♀ insect attracted).
Again, females were preferentially attracted (3:1 ratio) to ester blend #10 rapid kill liquid traps, while only males were seen to be attracted to the pheromone traps.
A second series of inherent attractancy tests were conducted on the most-active HPV blend (ester blend #10) using a novel, funnel-liquid (50:50 water and antifreeze) jar-trap adapted from a prototype of Trece, Inc., to rapidly kill (drown) attracted moths (“rapid-kill liquid traps”). This study comprised of a pheromone standard trap, a control blank trap and seven replicated HPV ester blend #10-baited traps. The rapid-kill traps were hung six meters high on trees distributed five rows apart in a Hartley walnut orchard with a moderate codling moth population. HPV ester blend #10 was loaded on a rubber septa at approximate doses of 10 mg/septum and were replaced every 10 days, while the commercial pheromone septum was replaced monthly.

male codling moth = experiment: Pheromone preference paired-trap test: pheromone alone vs pheromone + HPV; details: Table 8, trap paired with the HPV of the same table line
Text: Interaction of synthetic apple and pear odor blends, described above in Table 2, and their effect on the attractancy of synthetic pheromone to codling moth was also studied. For that purpose, series of paired-traps containing pheromone alone or pheromone in combination with synthetic host plant volatile blends were placed in walnut orchards.
Interaction of individual synthetic host plant volatiles or blends on the attractiveness of synthetic male pheromone to male codling moth administered in paired traps with pheromone alone or with pheromone and attractant 10 mg/red septum was also studied.
(§3) Pheromone traps (sticky wing traps, Trécé, Inc.,) were hung as pairs: a pheromone only baited-trap vs. a pheromone+HPV blend-baited trap. The two traps of a test pair were attached in close competitive proximity (120 cm apart) on a common hanger bar (PVC pipe). The paired-trap bars were hung 5-6 meters high on the outer canopies of trees. A single pair-trap was hung per tree and different replicate test trees were separated by five rows in a matrix through the orchard. Each pheromone trap was baited with ½ of a commercial pheromone-impregnated rubber septum (Trécé, Inc.). Septa were sectioned by a razor blade. The HPV blends evaporated from their own separate impregnated rubber septa containing 10 mg diluted in hexane/septum).
(§4) Tests were conducted in a Harley English walnut orchard. Tests spanned the entire two year seasons April-October with traps checked, males sexed, counted and removed every 2-7 days. Significant effect on pheromone trap capture were judged by paired tests either T-test or a nonparametric test.

codling moth [6] = experiment: Sticky traps baited with the single compound or pheromone; details: Table 15, sticky trap
Text: FIG. 5 illustrates mean attraction of female and male codling moths to sticky traps baited with a single host plant volatile, ethyl (2E,4Z)-2,4-decadienoate. The attraction was followed over a two month period.

codling moth [7] = experiment: Septa colour and loading dose trap study; details: Ph-L2 pheromone
Method: Since there have been differences observed between traps containing gray, white or red septa, a study was performed to determine the significance of the specific septa and their effect on the increase or decrease of attractancy. […]

codling moth [8] = experiment: Paired-trap test of pheromone alone vs pheromone + ester blend #10; details: for Total Moths Caught: / Mean ± SEM capture of codling moths: Table 11; for Mean ± SEM capture of codling moths: paired traps, Hartley walnut orchard
Text: The ability of the HPV ester blend #10 to influence the pheromone attractancy/preference of codling moth was resolved using paired-traps, one trap with a pheromone septum alone and the other trap with a pheromone septum and an ester blend #10 septum. […] Results are seen in Tables 10 and 11, and FIG. 3.
Table 10 illustrates interaction of pheromone with HPV ester blend #10 on codling moth attraction, when tested in a conventional low-population Hartley walnut orchard. There were 13 traps and 18 trap check dates.
as §3, §4

codling moth [9] = experiment: Ester blend #10-baited vs pheromone-baited sticky traps; details: Table 13; baited sticky trap
Text: Attraction of female and male codling moths to ester blend #10 in baited sticky trap is seen in FIG. 1. […] Results are numerically expressed in Table 13.
Table 13 compares two orchard treatments with ester blend #10 and pheromone-only baited sticky traps. […] In the pheromone baited traps, only male insects were captured.
The female flight pattern depicted by capture in ester blend #10-baited sticky traps was related to the male flight pattern to pheromone-baited traps over the 3 month test period. Results are seen in FIG. 2, which is a comparative graph of codling moth flight patterns delineated by males captured in pheromone traps versus both sexes captured in ester blend #10 traps. […] The male pheromone curve rises sooner and lasts longer per flight, while the female ester blend #10 curve drops off sooner. These temporal-phase shifts of the flight curves represent the earlier and longer emergence of male codling moth for each flight period.
as §1, §2

[10] = 3 traps, 43 trap checks (pheromone: 1 trap, 19 trap checks)
[11] = Gray Septa, High (high population conventional orchard)
[12] = Gray Septa, Low (low population organic orchard)
[13] = Red Septa, High (high population conventional orchard)
[14] = Red Septa, Low (low population organic orchard)
[15] = walnut orchard, blends 10 mg/white septa, ethyl (2E,4Z)-2,4-decadienoate 5 mg

CCCCCC=CC=CCO [(2,4)-2,4-decadien-1-ol]
attractancy to male and female codling moth (in words) (codling moth [1]): very low male attractancy

CCCCCCC/C=C/COC(C)=O [(E)-2-decen-1-yl acetate]
attractancy to male and female codling moth (in words) (codling moth [1]): most active

C=C/C(C)=C/C/C=C(\C)CCC=C(C)C [(E,E)-α-farnesene]
Σ codling moth captured (codling moth [2]; field tests over a three month period): 1

CCCCC/C=C/C=C/C(=O)OCC [Ethyl (2E,4E)-2,4-Decadienoate]
Female CM Captured ♀♀/trap/night ± SEM (codling moth [3]): 0.05 ± 0.05 ♀♀/trap/night | MALE CM Captured: ♂♂/trap/night ± SEM (codling moth [3]): 0.19 ± 0.05 ♂♂/trap/night | Total CM Captured: CM/trap ± SEM (codling moth [3]): 0.24 ± 0.10 CM/trap | MALE CM Captured: ♂♂/trap/night ± SEM (codling moth [4]): 0.24 ± 0.06 ♂♂/trap/night | Total CM Captured: CM/trap/night ± SEM (codling moth [4]): 0.77 ± 0.20 CM/trap/night

CCCCC/C=C\C=C\C(=O)OC [Methyl (2E,4Z)-2,4-Decadienoate]
FEMALE CM Captured: ♂♂/trap/night ± SEM (codling moth [4]): 0.41 ± 0.14 ♀♀/trap/night | MALE CM Captured: ♂♂/trap/night ± SEM (codling moth [4]): 0.12 ± 0.07 ♂♂/trap/night | Total CM Captured: CM/trap/night ± SEM (codling moth [4]): 0.54 ± 0.19 CM/trap/night | attractancy to male and female codling moth (in words) (codling moth [1]): most active

C/C=C/C=C/CCCCCCCO [Pheromone, (E,E)-8,10-dodecadienol, reference compound]
Female Capture: Sum: (codling moth [5]; Table 14): 0 Moths/Trap/Night | Male Capture: Sum: (codling moth [5]; Table 14): 18.3 Moths/Trap/Night | Female Capture: Mean ± SEM (codling moth [5]; Table 14, one month): 0 Moths/Trap/Night | Male Capture: Mean ± SEM (codling moth [5]; Table 14, one month): 3.04 ± 0.08 Moths/Trap/Night | Male CM Captured, Pheromone Alone Trap: ± SEM (male codling moth; Orchard #1): 0.73 ± 0.15 ♂♂/trap/night and 1.09 ± 0.27 ♂♂/trap/night and 1.04 ± 0.21 ♂♂/trap/night and 0.79 ± 0.15 ♂♂/trap/night and 1.24 ± 0.52 ♂♂/trap/night and 0.72 ± 0.13 ♂♂/trap/night | Male CM Captured, Pheromone Alone Trap: ± SEM (male codling moth; Orchard #3): 2.41 ± 0.42 ♂♂/trap/night and 2.98 ± 0.49 ♂♂/trap/night and 2.33 ± 0.41 ♂♂/trap/night and 4.40 ± 0.87 ♂♂/trap/night and 2.60 ± 0.38 ♂♂/trap/night and 3.82 ± 0.42 ♂♂/trap/night | Female Capture: Sum: (codling moth [6]): 0 Moths/Trap/Night | Male Capture: Sum: (codling moth [6]): 94.3 Moths/Trap/Night | Female Capture: Mean ± SEM (codling moth [6]; [10]): 0 Moths/Trap/Night | Male Capture: Mean ± SEM (codling moth [6]; [10]): 4.96 ± 1.04 Moths/Trap/Night | ♂♂ ± SEM (Ph-L2 pheromone) (codling moth [7]; [11]): 0.08 ± 0.05 | ♂♂ ± SEM (under Ph-L2 pheromone) (codling moth [7]; [11]): 0.05 ± 0.05 | ♂♂ ± SEM (Ph-L2 pheromone) (codling moth [7]; [12]): 0 | ♂♂ ± SEM (under Ph-L2 pheromone) (codling moth [7]; [12]): 1.28 ± 0.61 | ♂♂ ± SEM (Ph-L2 pheromone) (codling moth [7]; [13]): 0.06 ± 0.06 | ♂♂ ± SEM (under Ph-L2 pheromone) (codling moth [7]; [13]): 9.98 ± 2.94 | ♂♂ ± SEM (Ph-L2 pheromone) (codling moth [7]; [14]): 0 | ♂♂ ± SEM (under Ph-L2 pheromone) (codling moth [7]; [14]): 0.80 ± 0.31 | FEMALE CM Captured with HPV; ♀♀/trap night ± SEM (codling moth [2]; [15]): 0.0 ♀♀/trap night | MALE CM Captured with HPV; ♂♂/trap/night ± SEM (codling moth [2]; [15]): 3.15 ± 0.98 ♂♂/trap/night | Total CM Captured with HPV: (CM/trap/night ± SEM) (codling moth [2]; [15]): 3.15 ± 0.98 CM/trap/night | Total Moths Caught: Male (codling moth [8]; Table 10, conventional low-population Hartley walnut orchard): 46 | Male capture, Mean ± SEM (codling moth [8]; Table 10, conventional low-population Hartley walnut orchard, 13 traps, 18 trap check dates): 0.55 Moths/Night | Total Moths Caught: (codling moth [8]; Test 1): 212 | Mean ± SEM capture of codling moths (codling moth [8]; Test 1 (2 Reps)): 0.74 ± 0.13 Moths/Trap/Night | Total Moths Caught: (codling moth [8]; Test 2): 745 | Mean ± SEM capture of codling moths (codling moth [8]; Test 2 (2 Reps, 50 trap checks)): 2.54 ± 0.43 Moths/Trap/Night | Female Capture: Mean ± SEM (codling moth [9]): 0 Moths/Trap/Night | Female Capture: Sum: (codling moth [9]): 0 Moths/Trap/Night | Male Capture: Mean ± SEM (codling moth [9]): 4.96 ± 1.04 Moths/Trap/Night | Male Capture: Sum: (codling moth [9]): 94.3 Moths/Trap/Night | MALE CM Captured: ♂♂/trap/night ± SEM (codling moth [4]): 7.13 ± 1.94 ♂♂/trap/night | Total CM Captured: CM/trap/night ± SEM (codling moth [4]): 7.13 ± 1.94 CM/trap/night

CCCCCCC/C=C/C(=O)OCC [ethyl (2E)-2-decenoate]
attractancy to male and female codling moth (in words) (codling moth [1]): most active

CCCCC/C=C/C=C/C(=O)OCCC [n-Propyl (2E,4E)-2,4-Decadienoate]
FEMALE CM Captured: ♂♂/trap/night ± SEM (codling moth [4]): 0.19 ± 0.07 ♀♀/trap/night | MALE CM Captured: ♂♂/trap/night ± SEM (codling moth [4]): 0.17 ± 0.13 ♂♂/trap/night | Total CM Captured: CM/trap/night ± SEM (codling moth [4]): 0.36 ± 0.19 CM/trap/night

CCCCC/C=C\C=C\C(=O)OCCC [n-Propyl (2E,4Z)-2,4-Decadienoate]
FEMALE CM Captured: ♂♂/trap/night ± SEM (codling moth [4]): 1.12 ± 0.39 ♀♀/trap/night | MALE CM Captured: ♂♂/trap/night ± SEM (codling moth [4]): 0.49 ± 0.14 ♂♂/trap/night | Total CM Captured: CM/trap/night ± SEM (codling moth [4]): 1.61 ± 0.49 CM/trap/night
